{"source": "patent US6797824B2", "about": "“Certain 4-aminomethyl-2-substituted imidazole derivatives and 2-aminomethyl-4-substituted imidazole derivatives; new classes of dopamine receptor subtype specific ligands” (Neurogen Corporation, priority 1990, dated 2004)", "key": {"[1]": {"test_system": "male Sprague Dawley rats (learning and memory)", "experiment": "Step-down passive avoidance task", "format": "in vivo, rat", "protocol": "Non-naive male Sprague Dawley rats (SASCO St. Louis) weighing between 2000-300 grams, were housed in groups of three in a temperature and humidity controlled vivarium having a 12 hour light/dark cycle. Animals had ad lib access to food and water.\nBoth drugs were administered intravenously 5 minutes prior to training in both learning tasks.\nStep-Down Passive Avoidance: A step-down passive avoidance platform 4 (cm)×7 (cm) was placed in the center of an electrified gris floor, which was contained within a large (45×45×50 cm) white translucent plexiglas enclosure having a closable lid. The bars of the grip were spaced 1.5 cm apart and were wired to a BRS-LVE shock generator/scrambler which was set to deliver a 2 mA 6 second shock. Four passive avoidance boxes were automated by customer software (Labview) and commercial interface modules (National Instruments) connected to a computer. The timing and delivery of the shock as well as the latency to steo down and the number of trials taken to reach criterion during raining was under the control of the computer. All testing was done in the presence of 62 db white noise. […]\nRetention Testing: Testing was conduced approximately 24 hours after training, Drug-free animals were placed on the platform in the box in which they were trained and the latency to step down onto the unshocked floor was recorded for one trial. […]"}, "[2]": {"target": "T1, dopamine D4 receptors in rat hippocampus (Rattus norvegicus, UniProt P30729)", "T1 construct": "from tissue; host or cells: rat hippocampus (from the head of the results)", "T1 sequence (P30729 1-387)": "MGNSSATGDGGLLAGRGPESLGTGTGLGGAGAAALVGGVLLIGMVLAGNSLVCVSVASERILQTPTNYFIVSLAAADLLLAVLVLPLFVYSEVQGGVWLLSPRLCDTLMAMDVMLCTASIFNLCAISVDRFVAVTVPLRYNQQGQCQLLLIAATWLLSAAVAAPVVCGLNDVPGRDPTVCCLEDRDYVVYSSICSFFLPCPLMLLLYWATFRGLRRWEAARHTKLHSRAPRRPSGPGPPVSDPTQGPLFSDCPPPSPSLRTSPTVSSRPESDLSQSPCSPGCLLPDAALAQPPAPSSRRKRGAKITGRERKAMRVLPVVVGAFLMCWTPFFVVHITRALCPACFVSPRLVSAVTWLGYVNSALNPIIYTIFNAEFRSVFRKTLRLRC", "experiment": "Binding to D4 receptors in rat hippocampus"}, "[3]": {"target": "T2, human dopamine D4 receptor subtype (Homo sapiens, UniProt P21917)", "T2 construct": "expressed in transfected cells", "T2 sequence (P21917 1-419)": "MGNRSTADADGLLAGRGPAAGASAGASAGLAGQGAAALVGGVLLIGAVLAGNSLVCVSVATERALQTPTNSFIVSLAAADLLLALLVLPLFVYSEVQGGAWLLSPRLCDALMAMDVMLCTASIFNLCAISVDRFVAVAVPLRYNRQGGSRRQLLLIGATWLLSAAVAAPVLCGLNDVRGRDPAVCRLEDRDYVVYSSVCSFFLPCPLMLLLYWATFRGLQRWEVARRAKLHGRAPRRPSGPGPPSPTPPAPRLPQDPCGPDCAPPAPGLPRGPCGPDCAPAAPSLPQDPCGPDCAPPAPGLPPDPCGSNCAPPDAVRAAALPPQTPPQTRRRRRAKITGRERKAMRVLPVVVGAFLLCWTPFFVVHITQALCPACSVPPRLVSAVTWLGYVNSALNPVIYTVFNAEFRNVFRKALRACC", "experiment": "D4 receptor binding, displacement of [3H]YM-09151-2", "method": "Assay for D4 Receptor Binding Activity\nClonal cell lines expressing the human dopamine D4 receptor subtype were harvested in PBS and the cells centrifuged and the pellets stored at −80° C. until used in the binding assay. […] The homogenate is centrifuged at 48000×g for 10 minutes at 4° C. The resulting pellet is resuspended in fresh buffer and centrifuged again. After resuspension of the pellet in fresh buffer at […] aliquot is removed for protein determination. […] Incubations were carried out for 60 minutes at 25° C. in the presence of 0.1 nM [^3H] […] Non-specific binding was determined with 1 mM spiperone and radioactivity determined by counting in an LKB beta counter. Binding parameters were determined by non-linear least squares regression analysis, from which the inhibition constant (ki) could be calculated for each test compound."}, "[4]": {"target": "T3, dopamine D4 receptors in human hippocampus (Homo sapiens, UniProt P21917)", "T3 construct": "from tissue; host or cells: human hippocampus (from the head of the results)", "T3 sequence (P21917 1-419)": "T2 sequence (P21917 1-419)", "experiment": "Binding to D4 receptors in human hippocampus"}}, "note": "Counter-ions that a name gives are not always drawn."}
{"compound": "c1ccc(-c2ncc(CN3CCN(c4ncccn4)CC3)[nH]2)cc1", "note": "[Compound 23, 2-Phenyl-4(5)-[(4-(2-pyrimidinyl)-piperazin-1-yl)methyl]-imidazole dihydrochloride]", "values": [{"measurement": "passive avoidance retention: time on platform during retest vs vehicle", "setting": "[1]; 0.25 mg/kg i.v., retest about 24 h after training", "result": "significantly longer time"}, {"measurement": "passive avoidance acquisition vs vehicle group", "setting": "[1]; 0.03-1.0 mg/kg i.v. 5 min prior to training", "result": "no significant differences"}, {"measurement": "binding to dopamine D4 receptors, functional type", "setting": "[2]", "result": "antagonists binding to dopamine D4 receptors"}, {"measurement": "Ki", "setting": "[3]", "result": 2.7, "unit": "nM"}, {"measurement": "binding to dopamine D4 receptors, functional type", "setting": "[4]", "result": "antagonists binding to dopamine D4 receptors"}]}
{"compound": "c1ccc(-c2ncc(CN3CCN(c4ccccn4)CC3)[nH]2)cc1", "note": "[Compound 24, 2-Phenyl-4(5)-[(4-(2-pyridyl)-piperazin-1-yl)-methyl]-imidazole dihydrochloride]", "values": [{"measurement": "binding to dopamine D4 receptors, functional type", "setting": "[2]", "result": "antagonists binding to dopamine D4 receptors"}, {"measurement": "binding to dopamine D4 receptors, functional type", "setting": "[4]", "result": "antagonists binding to dopamine D4 receptors"}]}
{"compound": "c1ccc(-c2ncc(CN3CCN(c4ccccc4)CC3)[nH]2)cc1", "note": "[Compound 45, 2-Phenyl-4(5)-[(4-phenyl-piperazin-1-yl)methyl]-imidazole]", "values": [{"measurement": "binding to dopamine D4 receptors, functional type", "setting": "[2]", "result": "antagonists binding to dopamine D4 receptors"}, {"measurement": "Ki", "setting": "[3]", "result": 5, "unit": "nM"}, {"measurement": "binding to dopamine D4 receptors, functional type", "setting": "[4]", "result": "antagonists binding to dopamine D4 receptors"}]}
{"compound": "c1ccc(CC2CCN(CC3CCCc4[nH]c(-c5ccccc5)nc43)CC2)cc1", "note": "(centres unmarked) [Compound 138, 2-phenyl-7-[(4-benzyl-piperidin-1-yl)-methyl]-4,5,6,7-tetrahydrobenzimidazole]", "values": [{"measurement": "melting point", "result": "189 to 191", "unit": "°C"}]}
{"compound": "C[C@@H]1CN(c2ncccn2)C[C@H](C)N1Cc1cnc(-c2ccccc2)[nH]1", "note": "[Compound 140, 2-phenyl-4(5)-[(4-(2-pyrimidinyl)-cis-2,6-dimethylpiperazin-1-yl)-methyl]-imidazole]", "values": [{"measurement": "melting point", "result": "130 to 135", "unit": "°C"}]}
{"compound": "c1ccc(-c2ncc(CCN3CCN(c4ncccn4)CC3)[nH]2)cc1", "note": "[Compound 143, 2-phenyl-4(5)-[(4-(2-pyrimidinyl)-piperazin-1-yl)-ethan-1-yl]-imidazole]", "values": [{"measurement": "melting point", "result": "142 to 144", "unit": "°C"}]}
{"compound": "O=C(c1cnc(-c2ccccc2)[nH]1)N1CCN(c2ncccn2)CC1", "note": "[Compound 144, 2-phenyl-4(5)-N-[(4-(2-pyrimidinyl)-piperazin-1-yl)-carboxamido]-imidazole]", "values": [{"measurement": "melting point", "result": "231 to 232", "unit": "°C"}]}
